Test [1] relates to Parkinson's disease model cynomolgus monkeys (MPTP). The test is described as follows: Test Example 1: NDSs after administration of Compound (I) alone in MPTP Parkinson's disease model monkeys. Conditions: Istradefylline 60 mg/kg (G5). The test is classed as in vivo. Also on record: key to Subgroup 2: Specific motor functions score: specific motor functions subscore, range 0-21. Here is the method:
(§1) The therapeutic effect of Compound (I) on Parkinson's disease was examined using Parkinson's disease model animals which are produced by administering MPTP (1-methyl-4-phenyl-1,2,3,6-tetrahydropyridine).
MPTP was administered to male cynomolgus monkeys at the age of 4 to 5 to make Parkinson's disease model cynomolgus monkeys. MPTP was additionally administered to animals with neurologic deficit scores (Neurological deficit scores: NDSs, Schneider et al., “Development of levodopa-induced dyskinesias in parkinsonian monkeys may depend upon rate of symptom onset and/or duration of symptoms”, Brain Res., 2003, 990:38-44.) of less than 25.
Eight Parkinson's disease model cynomolgus monkeys were randomized into 5 groups of approximately equal mean and variance in terms of Parkinson behavior rating (Tremor score) and body weight. On subsequent cycle 2, cycle 3, cycle 4 and cycle 5, the animals were crossed over to receive the other treatments. A wash out period of one week or more was set between each cycle.
By the end of the study, each animal had received all the five treatments. Istradefylline is an adenosine A2A receptor antagonist approved as a drug for improving a wearing off phenomenon in Parkinson's disease being treated with a levodopa-containing preparation in the United States of America and Japan (Patent Literature 4). As a vehicle, an aqueous solution containing 0.43% (w/v) methyl cellulose 400, 10% (v/v) dimethyl sulfoxide (DMSO), and 4.5% (w/v) Cremophor (R) was used.
Before the administration, and 1 hr., 4 hrs., and 24 hrs. after the administration of the test substances, the NDSs of the monkeys were evaluated. The evaluation items are as follows. The behavior evaluation was performed in a blinded manner. The NDSs of the groups were compared using Steel's test. The p-values of less than 0.05 were considered to be statistically significant.
Subgroup 1: generalized behaviors (0-32) • 1.1a Appetite • 0: Normal • 1: Up to 30% food left • 2: Up to 65% food left • 3: Greater than 65% food left • 1.1b Response to offered food • 0: Responds to offered food • 1: Inconsistent response to offered food • 2: Little to no interest in offered food • 1.2 Overall activity • 0: Normal • 1: Mild hypokinesia; decrease in spontaneous movement • 2: Moderate hypokinesia; sparse spontaneous movement • 3: Severe hypokinesia; no spontaneous movement; tends to remain in one place • 1.3 Appearance • 0: Normal • 1: Mild but noticeable decrease in self-maintenance • 2: Moderate decrease in self-maintenance • 3: Severe lack of self-maintenance • 1.4 Posture • 0: Normal • 1: Minor flexing or stooping • 2: Moderate flexing or stooping; head and upper body almost parallel to floor of cage • 3: Severe flexing or stooping; head lowered to feet • 1.5 Balance • 0: Normal • 1: Mild loss on arising or movement • 2: Moderate loss on arising or movement; occasionally falls or supports self to keep from falling • 3: Severe loss of balance; falls • 1.6 Climbing • 0: Climbing observed with no delays in initiation/execution • 1: Mild deficit in ability to climb and support weight • 2: Moderate deficit in ability to climb and support weight; tends to ‘slide down’ • 3: Absence of any climbing behavior • 1.7 Tremor • 0: Absent • 1: Slight and intermittent • 2: Slight and persistent or moderate and intermittent • 3: Moderate/severe and persistent • 1.8 Freezing during movement • 0: Absent • 1: Occasional freezing for brief periods • 2: Occasional freezing for prolonged periods or frequent freezing for brief periods • 3: Prolonged and frequent freezing • 1.9 Facial expression • 0: Normal • 1: Mild hypomimia • 2: Moderate hypomimia • 3: Severe, masked fixed faces • 1.10 Defense reaction • 0: Normal • 1: Mild, noticeable reduction in reaction or slowed reaction, but can be provoked to react • 2: Moderate reduction in reaction; can produce facial display but not body reaction • 3: Little to no response
Subgroup 2: Specific Motor Functions (0-21)

For test [2], the system named is levodopa-induced dyskinesia model cynomolgus monkeys. Nature of the test: Test Example 3: dyskinesia score in levodopa-induced dyskinesia model monkeys. The test is classed as in vivo. The arrangement: key to Dyskinesia score: dyskinesia score 0 = normal home cage activity to 4 = severe stereotypy. Conditions: Istradefylline 60 mg/kg (G4). Here is the method: A levodopa/carbidopa mixture containing 80 mg/kg of levodopa and 20 mg/kg of carbidopa and having a solution volume of 5 mL/kg was orally administered to Parkinson's disease model cynomolgus monkeys at the age of 6 to 7 prepared in the same way as in Test Example 1 for 8 consecutive days to provide levodopa-induced dyskinesia model cynomolgus monkeys. The induction of dyskinesia was determined based on the “dyskinesia score” in accordance with the following behavior evaluation items in the following test on activity in home cages, and animals having dyskinesia scores of 1 or more on day 7 of the repeated administration of the levodopa/carbidopa mixture were used.
Home cage activities corresponding to dyskinesia scores • 0: Normal home cage activity (exploring or inactivity, able to drink water, plays with mirror or caging, climbing of the walls). • 1: Some interference with normal activity, however able to climb walls. • 2: Occasional exploration of cage, some stereotypy • 3: Little normal movement, lack of climbing of walls, clear stereotypy • 4: Lack of normal home cage activity, lack of normal exploratory behavior and movement, severe stereotypy
Seven levodopa-induced dyskinesia model cynomolgus monkeys were randomized into 4 groups of approximately equal mean and variance in terms of body weight. On subsequent cycles 2, 3, and 4, the animals were crossed over to receive the other treatment. A wash out period of one week or more was set between cycles.
One of the seven animals was excluded from the evaluation of cycles 3 and 4 because it was unable to get up due to dyskinesia on day 8 in cycle 3 of the repeated administration of the levodopa/carbidopa mixture.
By the end of the study, each animal had received all the four treatments. Each substance was administered 1 hr. after the administration on day 8 of the repeated administration of the levodopa/carbidopa mixture. As a vehicle, an aqueous solution containing 0.43% (w/v) methyl cellulose 400, 10% (v/v) dimethyl sulfoxide (DMSO), and 4.5% (w/v) Cremophor (R) were used.
Before the administration, and 1 hr., 4 hrs., and 24 hrs. after the administration of the test substances, the dyskinesia scores of the animals were evaluated. The behavior evaluation was performed in a blinded manner. The dyskinesia scores of the groups were compared using Steel's test. The p-values of less than 0.05 were considered to be statistically significant.

Test [3] relates to Parkinson's disease model cynomolgus monkeys (MPTP). Nature of the test: Test Example 2: NDSs after combined administration of Compound (I) and levodopa in MPTP Parkinson's disease model monkeys. The test is classed as in vivo.
From the text: as §1
Parkinson's disease model cynomolgus monkeys were provided in the same way as in Test Example 1, and the therapeutic effect of the combined administration of Compound (I) and levodopa was examined.
By the end of the study, each animal had received all the five treatments. As a vehicle, an aqueous solution containing 0.43% (w/v) methyl cellulose 400, 10% (v/v) dimethyl sulfoxide (DMSO), and 4.5% (w/v) Cremophor (R) was used.
Before the administration, and 1 hr., 4 hrs., and 24 hrs. after the administration of the test substances, the NDSs of the monkeys were evaluated. The evaluation items and the evaluation methods are the same as in Test Example 1.

The test system of test [4] is Parkinson's disease mouse model. Conditions: pre-onset treatment; cited from earlier work.
[5] abbreviates: Levodopa 5 mg/kg (G3), 1 hr. after administration.
The mark [6] stands for this setting: Levodopa 5 mg/kg (G3), 4 hrs. after administration.
The mark [7] stands for this setting: Levodopa 5 mg/kg (G3), 24 hrs. after administration.
Setting [8] is: Levodopa 5 mg/kg (G3), Pre (before administration).
Where [9] appears, read: Levodopa 10 mg/kg (G2), 1 hr. after administration.
Setting [10] is: Levodopa 10 mg/kg (G2), 4 hrs. after administration.
[11] abbreviates: Levodopa 10 mg/kg (G2), 24 hrs. after administration.
Where [12] appears, read: Levodopa 10 mg/kg (G2), Pre (before administration).

Structures are written as SMILES.

These results are taken from US20250195457A1, “PHARMACEUTICAL COMPOSITION FOR TREATMENT OF PARKINSON'S DISEASE” (Eisai R&D Management Co., Ltd., priority 2022, published 2025).

As for `CCn1c(=O)c2c(nc(/C=C/c3ccc(OC)c(OC)c3)n2C)n(CC)c1=O` [Istradefylline, reference compound], the “Subgroup 1: GENERALIZED BEHAVIORS score” value is 16.1 ± 0.9 in test [1] (1 hr. after administration), 14.5 ± 0.6 in test [1] (4 hrs. after administration), 15.9 ± 0.9 in test [1] (24 hrs. after administration) and 17.4 ± 0.9 in test [1] (Pre (before administration)). The “Subgroup 2: Specific motor functions score” value came to 12.3 ± 0.8 in test [1] (1 hr. after administration), 10.9 ± 0.5 in test [1] (4 hrs. after administration), 12.1 ± 0.5 in test [1] (24 hrs. after administration) and 13.5 ± 0.4 in test [1] (Pre (before administration)). For the same compound, the “Total score of NDSs” value in test [1] (1 hr. after administration) was 28.4 ± 1.6; in test [1] (4 hrs. after administration), 25.4 ± 1.0; in test [1] (24 hrs. after administration), 28.0 ± 1.2; in test [1] (Pre (before administration)), 30.9 ± 1.3. The Tremor score in test [1] (1 hr. after administration) was 1.8 ± 0.2; in test [1] (4 hrs. after administration), 1.6 ± 0.2; in test [1] (24 hrs. after administration) it was 1.6 ± 0.2; in test [1] (Pre (before administration)), 2.1 ± 0.1. Moreover, the Dyskinesia score in test [2] (1 hr. after administration) came out at 1.8 ± 0.2; in test [2] (4 hrs. after administration), 1.8 ± 0.2; in test [2] (24 hrs. after administration), 1.8 ± 0.2; in test [2] (Pre (before administration)), 1.7 ± 0.2.
Turning to `N[C@@H](Cc1ccc(O)c(O)c1)C(=O)O` [Levodopa, levodopa], the “Subgroup 1: GENERALIZED BEHAVIORS score” value in test [3] (setting [5]) amounted to 14.0 ± 0.7; in test [3] (setting [6]), 15.0 ± 0.9; in test [3] (setting [7]), 17.0 ± 0.7; in test [3] (setting [8]), 17.4 ± 0.7; in test [3] (setting [9]), 13.5 ± 0.9; in test [3] (setting [10]), 15.0 ± 0.7. For the same compound, the results for the “Subgroup 1: GENERALIZED BEHAVIORS score” value in test [3] (setting [11]) and in test [3] (setting [12]) were 17.6 ± 0.7 and 17.8 ± 0.6, respectively. Besides, the “Subgroup 2: Specific motor functions score” value is 11.0 ± 0.9 in test [3] (setting [5]); 11.9 ± 0.8 in test [3] (setting [6]); 13.6 ± 0.5 in test [3] (setting [7]); 14.3 ± 0.5 in test [3] (setting [8]); 10.9 ± 0.5 in test [3] (setting [9]); 12.3 ± 0.5 in test [3] (setting [10]). Further, the “Subgroup 2: Specific motor functions score” value was 14.0 ± 0.5 in test [3] (setting [11]) and 13.9 ± 0.4 in test [3] (setting [12]). In addition, the “Total score of NDSs” value in test [3] (setting [5]) is listed as 25.0 ± 1.6; in test [3] (setting [6]) it was 26.9 ± 1.7; in test [3] (setting [7]), 30.6 ± 1.1; in test [3] (setting [8]), 31.6 ± 1.1; in test [3] (setting [9]) it was 24.4 ± 1.2; in test [3] (setting [10]), 27.3 ± 1.0. Also, the “Total score of NDSs” value in test [3] (setting [11]) is on record as 31.6 ± 1.0; in test [3] (setting [12]), 31.6 ± 0.8. Moreover, the Tremor score in test [3] (setting [5]) amounted to 1.5 ± 0.2; in test [3] (setting [6]), 1.8 ± 0.2; in test [3] (setting [7]), 2.0 ± 0.0; in test [3] (setting [8]) it was 2.0 ± 0.0; in test [3] (setting [9]), 1.4 ± 0.2; in test [3] (setting [10]), 1.4 ± 0.2. The Tremor score in test [3] (setting [11]) and in test [3] (setting [12]) was 2.0 ± 0.0 throughout.
Regarding `Cc1ccsc1C(=CCCN1CCC[C@@H](C(=O)O)C1)c1sccc1C` [tiagabine], in test [4], the “effect on nigrostriatal axis and motor dysfunction” value was “partially protects nigrostriatal axis to ameliorate motor dysfunction”.
